Tests used:
human soluble ENPP1 [1] = target: T1, human soluble ENPP1 (Homo sapiens, UniProt P22413); assay: ENPP1 activity assay using p-Nitrophenyl-5′-TMP as a substrate; assay type: biochemical
T1 construct: 20 ng of human soluble ENPP1
T1 sequence (P22413 103-925 limits assumed): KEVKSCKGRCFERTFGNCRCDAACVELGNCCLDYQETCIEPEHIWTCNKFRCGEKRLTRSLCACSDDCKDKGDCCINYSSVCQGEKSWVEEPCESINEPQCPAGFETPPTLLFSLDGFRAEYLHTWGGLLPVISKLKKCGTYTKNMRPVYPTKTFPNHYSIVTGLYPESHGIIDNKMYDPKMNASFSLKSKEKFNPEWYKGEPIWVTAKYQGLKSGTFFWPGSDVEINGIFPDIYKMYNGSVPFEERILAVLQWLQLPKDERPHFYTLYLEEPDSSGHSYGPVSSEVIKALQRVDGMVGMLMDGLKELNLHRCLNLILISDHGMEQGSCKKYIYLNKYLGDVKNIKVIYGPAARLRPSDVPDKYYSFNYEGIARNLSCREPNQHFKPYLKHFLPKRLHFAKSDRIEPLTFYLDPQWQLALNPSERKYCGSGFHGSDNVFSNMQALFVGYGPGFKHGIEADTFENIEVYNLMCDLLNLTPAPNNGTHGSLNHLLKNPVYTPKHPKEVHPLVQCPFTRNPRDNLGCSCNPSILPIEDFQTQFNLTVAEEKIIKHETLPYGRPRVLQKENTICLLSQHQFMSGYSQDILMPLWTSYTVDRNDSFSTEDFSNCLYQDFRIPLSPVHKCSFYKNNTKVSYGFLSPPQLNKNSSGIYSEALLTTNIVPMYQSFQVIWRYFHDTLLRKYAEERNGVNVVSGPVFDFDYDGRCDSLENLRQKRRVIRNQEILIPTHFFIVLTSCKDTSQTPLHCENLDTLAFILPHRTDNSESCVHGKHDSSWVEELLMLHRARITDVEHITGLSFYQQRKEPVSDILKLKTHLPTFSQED
Protocol: ENPP1 is a transmembrane glycoprotein that hydrolyzes nucleotides and nucleotide derivatives with the formation of nucleotide-5′-monophosphates. ENPP1 hydrolyzes artificial phosphoric acid ester thymidine 5′monophosphate p-nitrophenyl ester (TMP-pNP) to nucleotide-5′-monophosphate and p-nitrophenol, which is a chromogenic product.
Load into a well with 20 ng of human soluble ENPP1 in 50 μL and incubate at room temperature with 25 μL inhibitor solution (4× Final Concentration) for 30 mins. Then, add 25 μL 2 mM TMP solution (2× Final Concentration) into the well, Incubate at RT for 1 hour.
(§1) The percent inhibition at each compound is calculated as follows: % inhibition=(ODMAX−ODCOMPOUND)/(ODMAX−ODMIN)*100. (MAX: absence of ENPP1 inhibitors control, MIN: blank control.)
The IC50 values for percent inhibition versus compound concentration were determined by fitting the inhibition curves using a four-parameter variable slope model in GraphPad Prism® 8.

human soluble ENPP1 [2] = target: T1, human soluble ENPP1; assay: ENPP1 activity assay using p-Nitrophenyl-5′-AMP as a substrate; assay type: biochemical
Protocol: AMP-pNP can be used as substrate of ENPP-1. Its hydrolysis products were nucleotide-5′-monophosphate and p-nitrophcnol, which is also a chromogenic product. The amount of p-nitrophenol product formed is measured using its absorbance at 405 nm, which is directly proportional to enzyme activity.
Load into a well with […] of human soluble ENPP1 in 50 μL and incubate at room temperature with 25 μL inhibitor solution (4× Final Concentration) for 30 mins prior adding 25 μL 3 mM AMP solution (2× Final Concentration) into the well, Incubate at RT for 1 hour. The amounts of released p-nitrophenolate were measured by reading OD value at 405 nm.
as §1
(§2) The IC50 values for percent inhibition versus compound concentration are determined by fitting the inhibition curves using a four-parameter variable slope model in GraphPad Prism® 8.

ENPP-1, MDA-MB-231 cells = target: T2, ENPP-1, MDA-MB-231 cells (Homo sapiens, UniProt P22413); assay: cell-based; details: for inhibition at 20 µM: MDA-MB-231, read-out: % Inhibition (at 20 μM)
T2 sequence (P22413 1-925): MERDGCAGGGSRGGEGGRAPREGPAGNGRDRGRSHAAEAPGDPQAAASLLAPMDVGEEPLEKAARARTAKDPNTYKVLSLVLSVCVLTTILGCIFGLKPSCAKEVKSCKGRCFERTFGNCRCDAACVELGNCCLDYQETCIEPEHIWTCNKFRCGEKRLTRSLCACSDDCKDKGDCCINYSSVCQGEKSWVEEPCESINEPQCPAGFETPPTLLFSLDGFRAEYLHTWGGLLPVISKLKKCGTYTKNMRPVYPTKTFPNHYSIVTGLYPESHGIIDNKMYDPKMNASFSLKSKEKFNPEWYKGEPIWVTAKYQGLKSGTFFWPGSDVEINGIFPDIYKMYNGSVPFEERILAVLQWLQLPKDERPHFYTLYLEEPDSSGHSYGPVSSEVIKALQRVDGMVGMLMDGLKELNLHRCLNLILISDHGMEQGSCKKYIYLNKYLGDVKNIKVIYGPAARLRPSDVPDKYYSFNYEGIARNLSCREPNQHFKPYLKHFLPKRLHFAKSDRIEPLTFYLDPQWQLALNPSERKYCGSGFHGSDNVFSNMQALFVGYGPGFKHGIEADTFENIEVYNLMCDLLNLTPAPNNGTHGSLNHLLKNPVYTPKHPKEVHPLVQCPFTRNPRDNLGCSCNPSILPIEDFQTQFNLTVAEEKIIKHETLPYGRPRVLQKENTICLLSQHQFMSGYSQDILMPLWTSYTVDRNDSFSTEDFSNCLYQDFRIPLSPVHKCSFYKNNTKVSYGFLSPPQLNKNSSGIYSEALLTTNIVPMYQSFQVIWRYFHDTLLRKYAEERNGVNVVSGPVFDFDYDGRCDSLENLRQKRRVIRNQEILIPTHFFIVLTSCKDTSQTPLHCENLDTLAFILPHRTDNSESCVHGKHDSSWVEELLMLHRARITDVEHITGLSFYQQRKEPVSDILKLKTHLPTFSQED
Protocol: ENPP-1 were mainly expressed on the surface of cell membrane where it hydrolytes 2′3′-cGAMP to generate 5′-GMP and 5′-AMP. ENPP-1 also has the ability to hydrolyzes artificial phosphoric acid ester TMP-pNP to nucleotide-5′-monophosphate and p-nitrophcnol there, which is a chromogenic product.
8 point of different concentrations of each inhibitor were prepared with the final assay concentrations starting at 20 μM. 3× series dilution by DMEM medium without FBS was applied. Prior to adding inhibitors, 75000 cells per well were incubated at 37° C., 5% CO2 in DMEM for 24 hours. After removing the supernatant medium, 50 μL inhibitor solution was added into each well with cultured cells and incubate at 37° C., 5% CO2 for 60 minutes.
as §2

[3] = substrate TMP-pNP, 20 ng human soluble ENPP1, Tris buffer pH 9.5, read-out: TMP-pNP (IC50)

Row | IC50 (human soluble ENPP1 [1]; [3]) [nM] | IC50 (human soluble ENPP1 [2]) [nM] | inhibition at 20 µM (ENPP-1, MDA-MB-231 cells) [%] | IC50 (human soluble ENPP1 [1]) [nM] | IC50 (ENPP-1, MDA-MB-231 cells) [nM] | Compound
1 | 0.33 | 0.74 | 87 |  |  | COCCn1c(=O)n(Cc2c(F)cc(S(N)(=O)=O)cc2F)c2c3ccc(OC)nc3ncc21 [Compound 132, 3,5-difluoro-4-((7-methoxy-3-(2-methoxyethyl)-2-oxo-2,3-dihydro-1H-imidazo[4,5-c][1,8]naphthyridin-1-yl)methyl)benzenesulfonamide]
2 |  | 0.68 | 81 | 0.24 | 310 | COc1ccc2c(ncc3nc(C4CCOCC4)n(Cc4ccc(S(N)(=O)=O)cn4)c32)n1 [Compound 75, 6-((7-methoxy-2-(tetrahydro-2H-pyran-4-yl)-1H-imidazo[4,5-c][1,8]naphthyridin-1-yl)methyl)pyridine-3-sulfonamide]
3 | 21 | 19 | 67 |  | > 6700 | CCC(=O)NS(=O)(=O)c1cc(F)c(Cn2c(=O)[nH]c3cnc4nc(OC)ccc4c32)c(F)c1 [Compound 105, sodium ((3,5-difluoro-4-((7-methoxy-2-oxo-2,3-dihydro-1H-imidazo[4,5-c][1,8]naphthyridin-1-yl)methyl)phenyl)sulfonyl)(propionyl)amide]
4 |  | 8.8 | 74 | 3.4 | 2700 | COc1ccc2c(n1)nc(C)c1nc(CO)n(Cc3cc(F)c(S(N)(=O)=O)cc3F)c12 [Compound 94, 2,5-difluoro-4-((2-(hydroxymethyl)-7-methoxy-4-methyl-1H-imidazo[4,5-c][1,8]naphthyridin-1-yl)methyl)benzenesulfonamide]
5 |  | 1.8 | 82 | 0.53 | 900 | COc1ccc2c(ncc3ncn([C@H](C)c4ccc(S(N)(=O)=O)cc4)c32)n1 [Compound 54, (R)-4-(1-(7-methoxy-1H-imidazo[4,5-c][1,8]naphthyridin-1-yl)ethyl)benzenesulfonamide]
6 |  | 56 | 86 | 19 | 9.6 | COc1ccc2c(ncc3[nH]c(=O)n(Cc4c(F)cc(P(=O)(O)O)cc4F)c32)n1 [Compound 124, (3,5-difluoro-4-((7-methoxy-2-oxo-2,3-dihydro-1H-imidazo[4,5-c][1,8]naphthyridin-1-yl)methyl)phenyl)phosphonic acid]
7 | 0.61 | 2.4 | 66 |  | 1800 | COc1ccc2c(c1)nnc1[nH]c(=O)n(Cc3ccc(S(N)(=O)=O)cc3F)c12 [Compound 123, 3-fluoro-4-((7-methoxy-2-oxo-2,3-dihydro-1H-imidazo[4,5-c]cinnolin-1-yl)methyl)benzenesulfonamide]
8 |  | 7.7 | 74 | 2.4 | 980 | COc1ccc2c(n1)nc(C)c1nc(C)n(Cc3cc(F)c(S(N)(=O)=O)cc3F)c12 [Compound 90, 2,5-difluoro-4-((7-methoxy-2,4-dimethyl-1H-imidazo[4,5-c][1,8]naphthyridin-1-yl)methyl)benzenesulfonamide]
9 |  | 1.8 | 68 | 0.38 | 1800 | COc1ccc2c(ncc3cnn(Cc4ccc(S(N)(=O)=O)cc4)c32)n1 [Compound 116, 4-((7-methoxy-1H-pyrazolo[4,3-c][1,8]naphthyridin-1-yl)methyl)benzenesulfonamide]
10 | 1.7 | 5.4 | 57 |  | 11000 | COc1ccc2c(ncc3[nH]c(=O)n(Cc4ccc(S(N)(=O)=O)nc4)c32)n1 [Compound 96, 5-((7-methoxy-2-oxo-2,3-dihydro-1H-imidazo[4,5-c][1,8]naphthyridin-1-yl)methyl)pyridine-2-sulfonamide]
11 | 0.49 | 1.7 | 86 |  | 610 | COc1ccc2c(ncc3ncn(Cc4ccc(S(N)(=O)=O)cc4Br)c32)n1 [Compound 68, 3-bromo-4-((7-methoxy-1H-imidazo[4,5-c][1,8]naphthyridin-1-yl)methyl)benzenesulfonamide]
12 | 0.04 | 0.19 | 88 |  | 80 | COc1ccc2c(ncc3c2n(Cc2c(F)cc(S(N)(=O)=O)cc2F)c(=O)n3CC(F)(F)F)n1 [Compound 131, 3,5-difluoro-4-((7-methoxy-2-oxo-3-(2,2,2-trifluoroethyl)-2,3-dihydro-1H-imidazo[4,5-c][1,8]naphthyridin-1-yl)methyl)benzenesulfonamide]
13 |  | 2.1 | 79 | 0.67 | 510 | COc1ccc2c(ncc3ncn(Cc4ccc(S(N)(=O)=O)cc4C#N)c32)n1 [Compound 69, 3-cyano-4-((7-methoxy-1H-imidazo[4,5-c][1,8]naphthyridin-1-yl)methyl)benzenesulfonamide]
14 |  | 7.7 | 83 | 3.2 | 1200 | COC(=O)Cc1nc2cnc3nc(OC)ccc3c2n1Cc1ccc(S(N)(=O)=O)c(F)c1 [Compound 83, methyl 2-(1-(3-fluoro-4-sulfamoylbenzyl)-7-methoxy-1H-imidazo[4,5-c][1,8]naphthyridin-2-yl)acetate]
15 | 0.6 | 3 | 62 |  | 3800 | COc1ccc2c(ncc3[nH]c(=O)n(Cc4ccc(S(N)(=O)=O)c(F)c4)c32)n1 [Compound 98, 2-fluoro-4-((7-methoxy-2-oxo-2,3-dihydro-1H-imidazo[4,5-c][1,8]naphthyridin-1-yl)methyl)benzenesulfonamide]

From patent US11673889B2, “Substituted imidazo[4,5-c][1,8]naphthyridines as phosphodiesterase inhibitors” (Nanjing Zhengxiang Pharmaceuticals Co., Ltd., priority 2019, dated 2023)
